≈ marks a conversion by molar mass, not a printed value.
What was measured:
[1] = cited from earlier work
[2] = physchem

Q: For Cc1c(-c2cnccn2)ssc1=S [oltipraz], which water solubility [1] is on record?
A: Its water solubility is no more than 0.001 mg/mL.

Q: And the solubility ([2]; Cremophor EL, organic solvent or mixture)?
A: Its solubility is 9.44 mg/mL (≈ 41.7 mM).

Q: What about the solubility ([2]; Cremophor RH40, organic solvent or mixture) of the same compound?
A: Its solubility is 10.7 mg/mL (≈ 47.2 mM).

Q: What about the solubility ([2]; Dimethylisosorbide, organic solvent or mixture) of the same compound?
A: Its solubility is 17.2 mg/mL (≈ 76.2 mM).

Q: What about the solubility ([2]; Labrasol, organic solvent or mixture) of the same compound?
A: The solubility was 12.6 mg/mL (≈ 55.6 mM).

Q: And the solubility ([2]; N,N-dimethylformamide, organic solvent or mixture)?
A: Its solubility is 31.3 mg/mL (≈ 138 mM).

Q: What about the solubility ([2]; N-methypyrrolidone, organic solvent or mixture) of the same compound?
A: Its solubility is 13.7 mg/mL (≈ 60.3 mM).

Q: And the solubility ([2]; Polymethylene glycol 200, organic solvent or mixture)?
A: The solubility was 7.99 mg/mL (≈ 35.3 mM).

Q: What about the solubility ([2]; Polymethylene glycol 400, organic solvent or mixture) of the same compound?
A: The solubility was 10.5 mg/mL (≈ 46.5 mM).

Q: What about the solubility ([2]; Polypropylene glycol, organic solvent or mixture) of the same compound?
A: The solubility was 0.57 mg/mL (≈ 2.52 mM).

Q: And the solubility ([2]; Tetraglycol, organic solvent or mixture)?
A: Its solubility is 13.6 mg/mL (≈ 59.9 mM).

Q: And the solubility ([2]; Transcutol, organic solvent or mixture)?
A: The solubility was 10.3 mg/mL (≈ 45.7 mM).

Q: And the solubility ([2]; acetone, organic solvent or mixture)?
A: The solubility was 4.05 mg/mL (≈ 17.9 mM).

Q: And the solubility ([2]; acetonitrile, organic solvent or mixture)?
A: Its solubility is 2.73 mg/mL (≈ 12.1 mM).

Q: What about the solubility ([2]; chloroform, organic solvent or mixture) of the same compound?
A: Its solubility is 28.6 mg/mL (≈ 126 mM).

Q: And the solubility ([2]; dimethyl sulfoxide, organic solvent or mixture)?
A: The solubility was 29.1 mg/mL (≈ 129 mM).

Q: And the solubility ([2]; ethanol, organic solvent or mixture)?
A: The solubility was 0.67 mg/mL (≈ 2.96 mM).

Q: And the solubility ([2]; methanol, organic solvent or mixture)?
A: Its solubility is 0.5 mg/mL (≈ 2.21 mM).

Q: What about the solubility ([2]; methylene chloride, organic solvent or mixture) of the same compound?
A: The solubility was 7.6 mg/mL (≈ 33.6 mM).

Reference: patent US20050163855A1, “Method of preparing low-crystallinity oltipraz or amorphous oltipraz” (CJ CORPORATION, priority 2004, published 2005)
